Measured values reported in patent US8715635B2, “Frictionless molecular rotary motors” (Technion Research & Development Foundation Limited, priority 2007, dated 2014).
In brackets after ≈: the same amount, converted by molar mass. Like-named read-outs stand apart in the source and are kept apart here.

Assays:
[1] = Isothermal titration calorimetry (ITC) of CB[6] host with dicationic guest molecules; format: binding; details: in water at 30° C.
Method: Isothermal titration calorimetry (ITC) was previously employed to study complexation parameters of Compound 1 [63]. Measurement of the host-guest binding thermodynamic profile using ITC provides in a single experiment not only the binding constants (Kb) and binding stoichiometry (n), but also the differences of enthalpy (ΔH) and entropy (ΔS) of binding.
The experiment was carried out by loading the ITC sample cell with saturated aqueous solution of Compound 1 (1.4 ml) and titrating it with a neutral aqueous solution of the dicationic dihydrochloride salts of various exemplary guest molecules at concentrations that ranged from 3.3 mM to 5.0 mM. The heat generated during each injection was recorded (FIG. 1) and the thermodynamic parameters were acquired by non-linear least squares fit of the calorimetric titration data to a one-site binding model (Table 2).
A saturated solution of Compound 1 (0.4 mM) in water at pH=7 was prepared by stirring an excess of finely powdered Compound 1 overnight at 30° C. and filtering through a 100-μm micro-filter. Solutions of the guest molecules at concentrations of 3.3-6 mM, were prepared and filtered through a 100-μm micro-filter as well. Titration calorimetry measurements were performed with a VP-ITC calorimeter (Microcal, Northampton, Mass.) as previously described. Repeat determinations indicated errors of 3-10% in n, ΔH, degree, and K values over the most favorable concentration range. A solution of Compound 1 was titrated by 29 injections of 6 μL of guest molecule solutions at 30° C. each, and the titration data were analyzed using Origin2000 software.

Solubility = format: physicochemical; details: water at pH=7, 30° C.
[2] = cited from earlier work
[3] = cited from earlier work; remark: listed apart in the source

Compound	ΔH of binding [1]	ΔS of binding [1]	further results
Cl.Cl.NCC#CC#CCN1CCCC1 [Compound 5′, N-6-pyrrolidinium-hexa-2,4-diynyl ammonium dichloride]	-4.452 ± 0.057 kcal/mol	9.29 cal/(mol·K)	
Cl.Cl.NCC#CC#CCN [Compound 4′, Hexa-2,4-diyne-1,6-diammonium dihydrochloride]	-0.696 ± 0.005 kcal/mol	23.51	
O=C1N2CN3C(=O)N4CN5C(=O)N6CN7C(=O)N8CN9C(=O)N%10CN%11C(=O)N%12CN1C1C2N2CN%13C(=O)N(CN%14C(=O)N(CN%15C(=O)N(CN%16C(=O)N(CN%17C(=O)N(CN1C2=O)C%12C%11%17)C%10C9%16)C8C7%15)C6C5%14)C4C3%13 (stereo not drawn) [Compound 1, Cucurbit[6]uril]			concentration of saturated solution in water (Solubility): 400 µM; solubility in aqueous acid ([2]; HCO2H/H2O (1:1)): 61 mM (≈ 60.8 mg/mL); pKa value of the conjugate acid [3]: 3.02
C(C#CCN1CCCC1)#CCN1CCCC1.Cl.Cl [Compound 6′, 1,6-Dipyrrolidinium-2,4-hexadiyne dichloride]	-3.718 ± 0.044 kcal/mol	12.8 cal/(mol·K)	
O=C1N2CN3C(=O)N4CN5C(=O)N6CN7C(=O)N8CN9C(=O)N%10CN1C1C2N2CN%11C(=O)N(CN%12C(=O)N(CN%13C(=O)N(CN%14C(=O)N(CN1C2=O)C%10C9%14)C8C7%13)C6C5%12)C4C3%11 (stereo not drawn) [CB[5]]			solubility in aqueous acid ([2]; 3M HCl): about 60 mM
NCCCCCCN [Compound 3′, 1,6-diaminohexane]	-13.760 ± 0.090 kcal/mol	-20.4 cal/(mol·K)	ΔS of binding (entropy term, text) ([1]; text values in J): −85.77 J/mol.° K; ΔH binding enthalpy ([1]; text values in KJ): -13.76 kcal/mol
O=C1N2CN3C(=O)N4CN5C(=O)N6CN7C(=O)N8CN9C(=O)N%10CN%11C(=O)N%12CN%13C(=O)N%14CN1C1C2N2CN%15C(=O)N(CN%16C(=O)N(CN%17C(=O)N(CN%18C(=O)N(CN%19C(=O)N(CN%20C(=O)N(CN1C2=O)C%14C%13%20)C%12C%11%19)C%10C9%18)C8C7%17)C6C5%16)C4C3%15 (stereo not drawn) [CB[7]]			solubility in aqueous acid ([2]; 3M HCl): about 700 mM
